Series [1] addresses T1, PLpro (Severe acute respiratory syndrome coronavirus 2, UniProt P0DTD1). The experiment in a line: PLpro activity assay in the presence of DTT and GSH. The format is biochemical, SARS-CoV-2. The conditions noted are these: 5 mM glutathione or 5 mM DTT. How it is done: (§1) subsequently added to the enzyme solution. The mixed solutions were incubated at room temperature for 20 min. 50 µL of Mpro protease substrate solution was added to each well, followed by 30 min incubation at 37 °C. The Mpro activity was detected by measuring the fluorescence emission intensity λ excitation=490 nm; λ emission=520nm.
(§2) Compound concentration µM
(§3) Fluorescence based PLpro activity assay in the presence of […] (DTT) and […]
(§4) PLpro inhibition assays were performed in the presence of 5 mM DTT and GSH to determine if […]
(§5) PLpro protease activity was measured with peptide substrate x-x-G-G-AMC (Bachem) in the presence or absence of 5 mM DTT and GSH.
(§6) PLpro was added into a black, flat-bottom 96-well plate at a final concentration of 50 nM with reaction buffer [150 mM NaCl, 20 mM HEPES, 0.1mg/mL BSA, pH 7.5] with or without 5 mM DTT […]
(§7) 0-80 µM for 20 min at room temperature. The enzyme activity assay was initiated by mixing the x-x-G-G-AMC probe at a final 50 µM and incubating for another 20 min at room temperature. The reaction was ended by adding 1 µL of aqueous citric acid. The PLpro activity was detected by measuring the fluorescence emission intensity λ excitation=360 nm; λ emission=460nm.

For series [2], the system named is SARS-CoV-2 (US/WA1/2020 isolate). The experiment in a line: SARS-CoV-2 infection of cells (dsRNA staining, RT-qPCR of viral RNA). It counts as cell-based. The conditions noted are these: for inhibition of SARS-CoV-2 replication in cells (in words): Calu-3 and/or Vero E6 cells. On the technique in general: In qPCR the cycle at which signal appears reflects the starting amount.

For the next series, the target named is PLpro from SARS-CoV-2 (Severe acute respiratory syndrome coronavirus 2, UniProt P0DTD1). The experiment in a line: Fluorescence based PLpro activity assay (R-L-R-G-G-AMC substrate). The note with it: read-out: IC50 (PLpro inhibition). The format is biochemical.
Series [3] addresses T1, PLpro. Put plainly: PLpro irreversibility test (pre-incubation then dilution). The format is biochemical, SARS-CoV-2. From the text:
All error bars represent the standard error of the mean for n = 3 replicates.

The next series deals with SARS-CoV-2 Mpro(3CL) (Severe acute respiratory syndrome coronavirus 2, UniProt P0DTD1). Put plainly: Fluorescence based Mpro(3CL) activity assay. It counts as biochemical. How it is done: Fluorescence based Mpro(3CL) activity assays
The ability of compounds 1, 19 and 20 to inhibit Mpro was determined using SensoLyte® 520 SARS-CoV-2 3CL Protease Activity Assay Kit (Anaspec), following the manufacturer’s instructions. Briefly, 40 µL diluted Mpro enzyme solution was added to a flat-bottom 96-well plate.
10 µL of varying concentrations of test compounds or GC 376 solution (an Mpro inhibitor) was (1 picture or pasted object on this page, not shown here) […]
as §1, §2, §3, §4, §5, §6, §7

A further series in a line: in vitro. The conditions noted are these: human.
Series [4] is described as follows: Determination of GSH t1/2 values. The note with it: buffer, pH 7.4.
The subject of another series is SARS-CoV PLpro. The note with it: cited from earlier work.
The test system of a further series is SARS-CoV2. The note with it: mouse, in vivo, po; cited from earlier work.

“Also recorded” adds a separate entry of the source.

The term IC50 denotes the point on the concentration scale where inhibition reaches its midpoint. For `O=C(CCl)Nc1ccc2c(c1)NC(=O)CO2` [Compound 1], the “PLpro inhibition in the presence of thiols (in words)” value on PLpro [1] is listed as “able to inhibit PLpro”. The “inhibition of SARS-CoV-2 replication in cells (in words)” value (from here on “inhibition of SARS-CoV-2 replication”) in [2] is given as “blocked SARS-CoV-2 replication in both cell lines; also recorded: inhibited viral replication in both cell lines”. The half-maximal inhibitory concentration (IC50) was less than 20 µM in [2] (Severe acute respiratory syndrome coronavirus 2, Calu-3 and Vero E6 cells, 72 hours, read-out: IC50 for inhibiting viral replication); 18 µM on PLpro from SARS-CoV-2. For the same compound, on PLpro [3] (500 nM, without pre-incubation at 50 μM), the “PLpro inhibition without pre-incubation” value is reported as “no inhibition”. At PLpro [3] (pre-incubated at 50 μM for 1 hour, then diluted to 500 nM), the “PLpro inhibition after pre-incubation and dilution” value is on record as “complete inhibition”. In addition, the “inhibition of Mpro (in words)” value on SARS-CoV-2 Mpro(3CL) is recorded as “did not inhibit; also recorded: no interaction”.
On to `O=C(CCl)Nc1ncc([N+](=O)[O-])s1` [Compound 2], for which the IC50 on PLpro from SARS-CoV-2 was 13 µM.
In the series “in vitro”, `Cn1ncc(C(=O)CCl)n1` [Compound 3] registered a CC50 of 62.5 µM. In series [2], the “inhibition of SARS-CoV-2 replication” value is given as “not effective in cells”. Moreover, the IC50 at PLpro from SARS-CoV-2 came out at 0.3 µM.
Usually half-life stands for how long it takes for the measured level to halve. Take `O=C(NCCc1ccc(F)cc1)n1ccnc1` [Compound 4]: the half-life at 0.05 mM in series [4] was determined as 13.4 min. This compound also returned a CC50 in “in vitro” of more than 500 µM. Besides, the IC50 on PLpro from SARS-CoV-2 was found to be 2.5 µM.
Compound `O=S(=O)(F)c1cncc(Cl)n1` [Compound 5] displayed a CC50 in “in vitro” of more than 500 µM. For the same compound, on PLpro from SARS-CoV-2, the IC50 was determined as 1.7 µM.
Take `C=CS(=O)(=O)c1nc2ccccc2s1` [Compound 6]: at PLpro from SARS-CoV-2, the half-inhibitory concentration (IC50) turned out to be 1 µM.
On to `O=C1COc2cc([N+](=O)[O-])c(NC(=O)CCl)cc2N1` [Compound 19], for which the “inhibition of SARS-CoV-2 replication” value in series [2] is reported as “no inhibitory activity against SARS-CoV-2; also recorded: did not inhibit viral replication”. Also, at PLpro from SARS-CoV-2, the IC50 worked out at 5 µM. Also, the “inhibition of Mpro (in words)” value against SARS-CoV-2 Mpro(3CL) was “no interaction”.
Turning to `O=C(CCl)Nc1cc2c(cc1Br)CCC(=O)N2` [Compound 20], in series [2], the “inhibition of SARS-CoV-2 replication” value is recorded as “no inhibitory activity against SARS-CoV-2; also recorded: did not inhibit viral replication”. Besides, the half-inhibitory concentration (IC50) on PLpro from SARS-CoV-2 amounted to 6 µM. On SARS-CoV-2 Mpro(3CL), the “inhibition of Mpro (in words)” value was “no interaction”.
Take `Cc1ccc(N)cc1C(=O)N[C@H](C)c1cccc2ccccc12` [GRL-0617]: the IC50 with SARS-CoV PLpro is […]. In the series with SARS-CoV2, the “antiviral activity against SARS-CoV2 in mice” value is “moderate antiviral activity”.
